In brackets after ≈: the same amount, converted by molar mass. Positions of bridges follow the written chain, without caps; N, C: chain ends. Non-standard residues stand in square brackets, D forms with d. Residues, ends and D or L forms follow the SMILES beside them. S5 = C=CCCC[C@](C)(N)C(=O)O; PEG2 = NCCOCCOCCC(=O)O; PEG1 = NCCOCCC(=O)O
Key:
E. coli = type: cell-based, Escherichia coli
Method in brief: (§1)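 Read-out is visible growth: the MIC is the minimum peptide concentration showing none after 20-24 h at 37 °C. Peptides were serially diluted from water stocks and mixed with log-phase bacteria (final 5×10^5 CFU/ml) in Mueller-Hinton or cation-adjusted Mueller-Hinton broth.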

A. baumannii = type: cell-based, Acinetobacter baumannii
Method in brief: as §1

P. aeruginosa = type: cell-based, Pseudomonas aeruginosa
Method in brief: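 Broth microdilution adapted from CLSI in MHB or cation-adjusted MHB; log-phase P. aeruginosa at 5×10^5 CFU/ml final with serially diluted stapled peptides. Incubated 20-24 h at 37 °C; MIC is the lowest concentration without visible growth.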

K. pneumoniae = type: cell-based, Klebsiella pneumoniae
Method in brief: as §1

S. aureus = type: cell-based, Staphylococcus aureus
Method in brief: as §1

in vitro [1] = type: cell-based; conditions: human
Method in brief: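 RPTEC or HepG2 cells plated overnight, given fresh media, then serial StAMP dilutions (from 5 mg/mL water stock) or vehicle at 37 °C. Cytotoxicity read as LDH release into media, absorbance 490 nm; renal toxicity after 90 min, liver toxicity after 48 h incubation.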

in vitro [2] = type: cell-based; conditions: human, Inhibitory Concentration at 50% Cytotoxicity (IC50) Human Liver Cells (HepG2)
Method in brief: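 HepG2 cells in EMEM with 10% FBS, allowed 4 h to attach, then exposed to serial dilutions of StAMPs (from a 5 mg/mL water stock) or vehicle. After 48 h at 37 °C, viability read by CellTiter-Glo luminescence.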

Structure (SMILES) | Minimum Inhibitory Concentration (MIC) E. coli (E. coli) | Minimum Inhibitory Concentration (MIC) A. baumannii (A. baumannii) | Minimum Inhibitory Concentration (MIC) P. aeruginosa (P. aeruginosa) | Minimum Inhibitory Concentration (MIC) K. pneumoniae (K. pneumoniae) | Minimum Inhibitory Concentration (MIC) S. aureus (S. aureus) | IC50 at 90 min (in vitro [1]) | IC50 at 48 hours (in vitro [2])
CC(C)[C@@H]1NC(=O)[C@@](C)(NC(=O)[C@H](Cc2c[nH]c3ccccc23)NC(=O)[C@H](CCCCN)NC(=O)CNC(=O)[C@H](Cc2ccccc2)NC(=O)[C@H](CCCCN)NC(=O)[C@H](CCCCN)NC(=O)[C@H](CCCCN)NC(=O)[C@H](CO)NC(=O)[C@H](Cc2c[nH]cn2)NC(=O)[C@]2(C)CCCC=CCCC[C@](C)(NC(=O)CN)C(=O)NCC(=O)N[C@@H](CCCCN)C(=O)N[C@@H](Cc3ccccc3)C(=O)N2)CCCC=CCCC[C@@](C)(C(=O)N[C@@H](C)C(=O)N[C@@H](CCCCN)C(=O)N[C@@H](CCCCN)C(N)=O)NC(=O)[C@H](CCC(=O)O)NC(=O)CNC1=O [compound 63] (H-G[S5]GKF[S5]HSKKKFGKW[S5]VGE[S5]AKK-NH2; staple 2-6, 16-20) | 4 µg/mL | 4 µg/mL | 6 µg/mL | 8 µg/mL | 16 µg/mL | 32 µg/mL (≈ 12.1 µM) | 60 µg/mL (≈ 22.7 µM)
C[C@H](NC(=O)[C@H](CCCCN)NC(=O)CNC(=O)[C@H](Cc1ccccc1)NC(=O)[C@H](CCCCN)NC(=O)[C@H](CCCCN)NC(=O)[C@H](CCCCN)NC(=O)[C@H](CO)NC(=O)[C@H](Cc1c[nH]cn1)NC(=O)[C@]1(C)CCCC=CCCC[C@](C)(NC(=O)CN)C(=O)NCC(=O)N[C@@H](CCCCN)C(=O)N[C@@H](Cc2ccccc2)C(=O)N1)C(=O)N[C@@]1(C)CCCC=CCCC[C@@](C)(C(=O)N[C@@H](C)C(=O)N[C@@H](CCCCN)C(=O)N[C@@H](CCCCN)C(N)=O)NC(=O)[C@H](CCC(=O)O)NC(=O)CNC(=O)[C@H](Cc2c[nH]c3ccccc23)NC1=O [compound 64] (H-G[S5]GKF[S5]HSKKKFGKA[S5]WGE[S5]AKK-NH2; staple 2-6, 16-20) | 4 µg/mL | 4 µg/mL | 8 µg/mL | 32 µg/mL | 16 µg/mL | > 200 µg/mL | > 200 µg/mL
CC(C)[C@@H]1NC(=O)[C@@](C)(NC(=O)[C@H](C)NC(=O)[C@H](CCCCN)NC(=O)CNC(=O)[C@H](Cc2ccccc2)NC(=O)[C@H](CCCCN)NC(=O)[C@H](CCCCN)NC(=O)[C@H](CCCCN)NC(=O)[C@H](CO)NC(=O)[C@H](Cc2c[nH]cn2)NC(=O)[C@]2(C)CCCC=CCCC[C@](C)(NC(=O)CN)C(=O)NCC(=O)N[C@@H](CCCCN)C(=O)N[C@@H](Cc3ccccc3)C(=O)N2)CCCC=CCCC[C@@](C)(C(=O)N[C@@H](C)C(=O)N[C@@H](CCCCN)C(=O)N[C@@H](CCCCN)C(N)=O)NC(=O)[C@H](Cc2c[nH]c3ccccc23)NC(=O)CNC1=O [compound 66] (H-G[S5]GKF[S5]HSKKKFGKA[S5]VGW[S5]AKK-NH2; staple 2-6, 16-20) | 4 µg/mL | 4 µg/mL | 6 µg/mL | 4 µg/mL | 32 µg/mL | 16 µg/mL (≈ 6.18 µM) | 38 µg/mL (≈ 14.7 µM)
CC(C)[C@@H]1NC(=O)[C@@](C)(NC(=O)[C@H](C)NC(=O)[C@H](CCCCN)NC(=O)CNC(=O)[C@H](Cc2ccccc2)NC(=O)[C@H](CCCCN)NC(=O)[C@H](CCCCN)NC(=O)[C@H](CCCCN)NC(=O)[C@H](CO)NC(=O)[C@H](Cc2c[nH]cn2)NC(=O)[C@]2(C)CCCC=CCCC[C@](C)(NC(=O)CN)C(=O)NCC(=O)N[C@@H](CCCCN)C(=O)N[C@@H](Cc3ccccc3)C(=O)N2)CCCC=CCCC[C@@](C)(C(=O)N[C@@H](C)C(=O)N[C@@H](CCCCN)C(=O)N[C@@H](Cc2c[nH]c3ccccc23)C(N)=O)NC(=O)[C@H](CCC(=O)O)NC(=O)CNC1=O [compound 67] (H-G[S5]GKF[S5]HSKKKFGKA[S5]VGE[S5]AKW-NH2; staple 2-6, 16-20) | 4 µg/mL | 4 µg/mL | 16 µg/mL | 8 µg/mL | 16 µg/mL | 27 µg/mL (≈ 10.4 µM) | 52 µg/mL (≈ 20.1 µM)
CC(C)[C@@H]1NC(=O)[C@@](C)(NC(=O)[C@H](C)NC(=O)[C@H](CCCCN)NC(=O)CNC(=O)[C@H](Cc2c[nH]c3ccccc23)NC(=O)[C@H](CCCCN)NC(=O)[C@H](CCCCN)NC(=O)[C@H](CCCCN)NC(=O)[C@H](CO)NC(=O)[C@H](Cc2c[nH]cn2)NC(=O)[C@]2(C)CCCC=CCCC[C@](C)(NC(=O)CN)C(=O)NCC(=O)N[C@@H](CCCCN)C(=O)N[C@@H](Cc3ccccc3)C(=O)N2)CCCC=CCCC[C@@](C)(C(=O)N[C@@H](C)C(=O)N[C@@H](CCCCN)C(=O)N[C@@H](CCCCN)C(N)=O)NC(=O)[C@H](CCC(=O)O)NC(=O)CNC1=O [compound 68] (H-G[S5]GKF[S5]HSKKKWGKA[S5]VGE[S5]AKK-NH2; staple 2-6, 16-20) | 4 µg/mL | 4 µg/mL | 8 µg/mL | 16 µg/mL | >64 µg/mL | 117 µg/mL (≈ 45.5 µM) | 129 µg/mL (≈ 50.2 µM)
CC(C)[C@@H]1NC(=O)[C@@](C)(NC(=O)[C@H](C)NC(=O)[C@H](CCCCN)NC(=O)[C@H](Cc2c[nH]c3ccccc23)NC(=O)[C@H](Cc2ccccc2)NC(=O)[C@H](CCCCN)NC(=O)[C@H](CCCCN)NC(=O)[C@H](CCCCN)NC(=O)[C@H](CO)NC(=O)[C@H](Cc2c[nH]cn2)NC(=O)[C@]2(C)CCCC=CCCC[C@](C)(NC(=O)CN)C(=O)NCC(=O)N[C@@H](CCCCN)C(=O)N[C@@H](Cc3ccccc3)C(=O)N2)CCCC=CCCC[C@@](C)(C(=O)N[C@@H](C)C(=O)N[C@@H](CCCCN)C(=O)N[C@@H](CCCCN)C(N)=O)NC(=O)[C@H](CCC(=O)O)NC(=O)CNC1=O [compound 69] (H-G[S5]GKF[S5]HSKKKFWKA[S5]VGE[S5]AKK-NH2; staple 2-6, 16-20) | 4 µg/mL | 4 µg/mL | 8 µg/mL | 8 µg/mL | 32 µg/mL | 24 µg/mL (≈ 9.02 µM) | 23 µg/mL (≈ 8.64 µM)
CC(C)[C@@H]1NC(=O)[C@@](C)(NC(=O)[C@H](CCCCN)NC(=O)[C@H](CCCCN)NC(=O)[C@H](CCCCN)NC(=O)[C@H](CCCCN)NC(=O)[C@H](CCCCN)NC(=O)[C@]2(C)CCCC=CCCC[C@](C)(NC(=O)CN)C(=O)NCC(=O)N[C@@H](CCCCN)C(=O)N[C@@H](Cc3ccccc3)C(=O)N2)CCCC=CCCC[C@@](C)(C(=O)N[C@@H](C)C(=O)N[C@@H](CCCCN)C(=O)N[C@@H](CCCCN)C(N)=O)NC(=O)[C@H](CCC(=O)O)NC(=O)CNC1=O [compound 70] (H-G[S5]GKF[S5]KKKKK[S5]VGE[S5]AKK-NH2; staple 2-6, 12-16) | 4 µg/mL | 16 µg/mL | 4 µg/mL | 4 µg/mL | >64 µg/mL | 125 µg/mL (≈ 57.8 µM) | 102 µg/mL (≈ 47.2 µM)
CC(C)[C@@H]1NC(=O)[C@@](C)(NC(=O)[C@H](C)NC(=O)[C@H](CCCCN)NC(=O)CNC(=O)[C@H](Cc2ccccc2)NC(=O)[C@H](CCCCN)NC(=O)[C@H](CCCCN)NC(=O)[C@H](CCCCN)NC(=O)[C@H](CCCCN)NC(=O)[C@H](CCCCN)NC(=O)[C@]2(C)CCCC=CCCC[C@](C)(NC(=O)CN)C(=O)NCC(=O)N[C@@H](CCCCN)C(=O)N[C@@H](Cc3ccccc3)C(=O)N2)CCCC=CCCC[C@@](C)(C(=O)N[C@@H](C)C(=O)N[C@@H](CCCCN)C(=O)N[C@@H](CCCCN)C(=O)NCCOCCC(N)=O)NC(=O)[C@H](CCC(=O)O)NC(=O)CNC1=O [compound 71] (H-G[S5]GKF[S5]KKKKKFGKA[S5]VGE[S5]AKK[PEG1]-NH2; staple 2-6, 16-20) | 2 µg/mL | 2 µg/mL | 4 µg/mL | 4 µg/mL | >64 µg/mL | 200 µg/mL (≈ 74.6 µM) | 247 µg/mL (≈ 92.2 µM)
CC(C)[C@@H]1NC(=O)[C@@](C)(NC(=O)[C@H](C)NC(=O)[C@H](CCCCN)NC(=O)CNC(=O)[C@H](Cc2ccccc2)NC(=O)[C@H](CCCCN)NC(=O)[C@H](CCCCN)NC(=O)[C@H](CCCCN)NC(=O)[C@H](CCCCN)NC(=O)[C@H](CCCCN)NC(=O)[C@]2(C)CCCC=CCCC[C@](C)(NC(=O)CN)C(=O)NCC(=O)N[C@@H](CCCCN)C(=O)N[C@@H](Cc3ccccc3)C(=O)N2)CCCC=CCCC[C@@](C)(C(=O)N[C@@H](C)C(=O)N[C@@H](CCCCN)C(=O)N[C@@H](CCCCN)C(=O)NCCOCCOCCC(N)=O)NC(=O)[C@H](CCC(=O)O)NC(=O)CNC1=O [compound 72] (H-G[S5]GKF[S5]KKKKKFGKA[S5]VGE[S5]AKK[PEG2]-NH2; staple 2-6, 16-20) | 2 µg/mL | 2 µg/mL | 4 µg/mL | 4 µg/mL | >64 µg/mL | 200 µg/mL (≈ 73.4 µM) | 275 µg/mL (≈ 101 µM)

Source: US20240174723A1, “STAPLED ANTIMICROBIAL PEPTIDES (STAMPS) AND USES THEREOF” (Lytica Therapeutics, Inc., priority 2021, published 2024)
